In patent publication US12414997B2, “Brush prodrugs and uses thereof” (Massachusetts Institute of Technology, priority 2018, dated 2025):

Key:
[1] = clinical; cited from earlier work
[2] = tested on: orthotopic, syngeneic tumor; assay: Efficacy of Brush prodrugs in orthotopic, syngeneic tumor (tumor volume, tumor weight, body weight); format: in vivo
Method: In FIGS. 5D to 5F, “iBET” refers to OTX-015.
Tumor volumes are calculated after measuring length and width using digital calipers. Tumors were also weighted, and the body weight was measured.

## Cc1sc2c(c1C)C(c1ccc(Cl)cc1)=N[C@@H](CC(=O)Nc1ccc(O)cc1)c1nnc(C)n1-2 [OTX-015]
[1]
  dose-limiting toxicity: anemia: 91%
  dose-limiting toxicity: neutropenia: 51%
  dose-limiting toxicity: thrombocytopenia: 96%
[2]; tolerated dose 100 mpk BID, PO (FIG. 5C)
  body weight loss: minor weight loss
[2]; tolerated doses 5 mpk and 10 mpk (FIG. 5F)
  body weight loss: minor weight loss
